The results in this text go back to patent publication US20020183518A1, “Modulators of proteins with phosphotyrosine recognition units” (ONTOGEN CORPORATION, priority 1995, published 2002).

Type in all cases: biochemical
For one test, the target named is T1, PTP-1B (Homo sapiens, UniProt P18031).
T1 construct: known to encode a 321 amino acid fragment containing the PTP-1B catalytic domain and having PTPase activity; made in house; host or cells: E. coli DH5α, plasmid pGEX-3X-PTP-1B
T1 sequence (P18031 3-277 limits assumed): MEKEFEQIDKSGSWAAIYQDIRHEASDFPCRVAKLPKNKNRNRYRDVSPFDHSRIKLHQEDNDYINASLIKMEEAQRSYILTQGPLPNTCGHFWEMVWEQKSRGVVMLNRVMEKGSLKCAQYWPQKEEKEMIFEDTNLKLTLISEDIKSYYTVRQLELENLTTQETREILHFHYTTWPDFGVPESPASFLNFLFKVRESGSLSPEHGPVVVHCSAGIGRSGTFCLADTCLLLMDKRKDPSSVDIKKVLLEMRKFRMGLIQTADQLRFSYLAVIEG
Nature of the test: In vitro PTPase inhibition assay (pNPP, colorimetric), PTP-1B. Particulars: Table 8; 1 μM compound.

Another test has as its target PTPα (Homo sapiens, UniProt P18433). Nature of the test: In vitro PTPase inhibition assay (pNPP, colorimetric), PTPα. As to conditions: Table 8; 100 μM compound. Here is the method: (§1) The ability of the compounds of the present invention, such as the cinnamic 4 acid derivative compounds of Example 2, to inhibit the PTPase activity of PTP-1B, CD45, PTP-1C, and PTPα was determined using modifications of the PTP-1B and CD45 activity assays described in Examples 3 and 4.
(§2) First, 0.001 mmol of the cinnamic acid derivative (or other PTPase inhibitor compound) was dissolved in 100 ul of DMSO to create a 10 mM stock solution. The 10 mM stock solution was used to add varying concentrations (100 uM, 133 uM, 10 uM, 3 uM, 1 uM, 0.3 uM, 0.1 uM, 0.03 uM, 0.01 uM or 0.003 uM) of the inhibitor compound to a series of otherwise identical PTPase activity assay reactions (100 ul final volume in microtiter wells). Thus, each 100 ul reaction contained 10 ul PTPase enzyme stock solution (final phosphatase concentration of approximately 20 ng/well), 70 ul activity assay buffer, 10 ul pNPP stock solution (final pNPP concentration of 0.9 mM for PTP-1B assay, 0.93 mM for CD45 assay, 0.5 mM for PTPα assay, and 8 mM for PTP-1C assay), and 10 ul of the diluted inhibitor compound in DMSO. Assay buffers contained: for CD45 and PTP-1B assays, 100 mM sodium acetate at pH 6.0, 1 mM EDTA, 0.1% Triton X-100, and 15 mM bME; for PTP-1C assays, 100 mM sodium acetate at pH 5.5, 0.1% BSA, and 15 mM bME; for PTPα assays, 100 mM sodium acetate at pH 5.25, 0.1% BSA, and 15 mM bME. Purified phosphatase was added to the reaction mixtures to begin the reactions; the reactions were incubated at 37° C. for 60 min. (for PTP-1B and CD45 assays) or at 27° C. for 60 min. (for PTP-1C and PTPα assays), stopped, and colorimetrically analyzed as described above. As positive and negative controls, reactions were performed containing 10 ul DMSO with no inhibitor compound or containing the known PTPase inhibitors vanadate (final concentration 0.5 mM; for PTP-1B and CD45 assays) or ammonium molybdate (final concentration 1 mM; for PTP-1C and PTPα assays) substituted for the inhibitor compound of the invention.
(§3) The concentration of inhibitor compound required to inhibit 50% of the PTPase activity (IC50) was determined as follows. First, absorbance readings from the negative control reactions were treated as a baseline and subtracted from the absorbance readings of the experimental reactions. Then, for each reaction, a percent inhibition was calculated using the following formula: […]
(§4) The ability of the compounds of the present invention, such as the cinnamic acid derivative compounds of Example 2, to inhibit the PTPase activity of PTP-1B, CD45, PTP-1C, and PTPα was determined using modifications of the PTP-1B and CD45 activity assays described in Examples 3 and 4.
as §2, with “uM, 33” for “uM, 133”, “EDTA, 0. 1%” for “EDTA, 0.1%”, “at 27 C” for “at 27° C.”, “min.” for “min. (for PTP-1C and PTPα assays), stopped, and colorimetrically analyzed as described above. As positive and negative controls, reactions were performed containing 10 ul DMSO with no inhibitor compound or containing the known PTPase inhibitors vanadate (final concentration 0.5 mM; for PTP-1B and CD45 assays) or ammonium molybdate (final concentration 1 mM; for PTP-1C and PTPα assays) substituted for the inhibitor compound of the invention.”

A further test concerns the target PTP-1C (Homo sapiens, UniProt P29350). Nature of the test: In vitro PTPase inhibition assay (pNPP, colorimetric), PTP-1C. Particulars: Table 8; 100 μM compound. The procedure:
as §1, §2, §3, §4
as §2, with “uM, 33” for “uM, 133”, “EDTA, 0. 1%” for “EDTA, 0.1%”, “at 27 C” for “at 27° C.”, “min.” for “min. (for PTP-1C and PTPα assays), stopped, and colorimetrically analyzed as described above. As positive and negative controls, reactions were performed containing 10 ul DMSO with no inhibitor compound or containing the known PTPase inhibitors vanadate (final concentration 0.5 mM; for PTP-1B and CD45 assays) or ammonium molybdate (final concentration 1 mM; for PTP-1C and PTPα assays) substituted for the inhibitor compound of the invention.”

Chain of PTPα (P18433 20-802): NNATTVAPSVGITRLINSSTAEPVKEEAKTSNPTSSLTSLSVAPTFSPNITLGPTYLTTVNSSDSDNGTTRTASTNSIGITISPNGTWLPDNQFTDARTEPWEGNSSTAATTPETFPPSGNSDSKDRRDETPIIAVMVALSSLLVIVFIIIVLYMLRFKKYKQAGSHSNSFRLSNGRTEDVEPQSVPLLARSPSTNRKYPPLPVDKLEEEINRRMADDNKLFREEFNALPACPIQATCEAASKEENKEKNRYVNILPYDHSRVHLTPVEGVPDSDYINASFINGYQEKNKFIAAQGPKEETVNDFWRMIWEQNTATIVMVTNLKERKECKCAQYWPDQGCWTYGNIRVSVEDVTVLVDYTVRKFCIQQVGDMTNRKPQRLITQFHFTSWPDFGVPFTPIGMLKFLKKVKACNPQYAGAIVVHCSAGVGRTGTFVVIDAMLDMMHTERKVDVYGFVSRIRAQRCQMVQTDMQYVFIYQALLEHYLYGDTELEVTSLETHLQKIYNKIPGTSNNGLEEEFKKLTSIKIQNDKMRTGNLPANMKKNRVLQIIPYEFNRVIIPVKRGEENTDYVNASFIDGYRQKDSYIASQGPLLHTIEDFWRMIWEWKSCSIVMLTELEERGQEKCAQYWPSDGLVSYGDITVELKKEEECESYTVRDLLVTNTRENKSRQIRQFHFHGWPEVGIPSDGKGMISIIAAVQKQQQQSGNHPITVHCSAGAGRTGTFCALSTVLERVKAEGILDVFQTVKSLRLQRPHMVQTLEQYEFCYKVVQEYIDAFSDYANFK
Chain of PTP-1C (P29350 whole entry, species assumed): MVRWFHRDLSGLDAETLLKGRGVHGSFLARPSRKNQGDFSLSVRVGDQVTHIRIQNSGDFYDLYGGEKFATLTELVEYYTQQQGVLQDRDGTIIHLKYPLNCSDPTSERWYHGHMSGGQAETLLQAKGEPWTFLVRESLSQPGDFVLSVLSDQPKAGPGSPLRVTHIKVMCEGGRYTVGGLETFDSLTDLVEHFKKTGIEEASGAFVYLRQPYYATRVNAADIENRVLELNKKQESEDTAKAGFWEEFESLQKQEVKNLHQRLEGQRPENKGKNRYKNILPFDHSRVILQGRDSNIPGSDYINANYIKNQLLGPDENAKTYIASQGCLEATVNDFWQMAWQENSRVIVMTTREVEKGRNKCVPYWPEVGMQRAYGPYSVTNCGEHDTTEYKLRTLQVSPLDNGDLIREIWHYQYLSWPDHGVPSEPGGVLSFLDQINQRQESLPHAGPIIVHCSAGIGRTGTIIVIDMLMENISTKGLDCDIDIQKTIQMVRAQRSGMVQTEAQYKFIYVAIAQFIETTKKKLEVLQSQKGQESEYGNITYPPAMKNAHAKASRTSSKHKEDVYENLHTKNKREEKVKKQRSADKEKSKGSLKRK

On to `CCCCCCCCCC(OC(=O)c1ccc(/C=C/C(=O)O)cc1)C(=O)NCCC(=O)O` (racemic) [Compound 40], for which the “% inhibition of PTP1B at 1 μM” value at PTP-1B is recorded as 88%. For the same molecule, the “% inhibition of PTPα at 100 μM” value on PTPα is reported as 82%. For the same molecule, the “% inhibition of PTP1C at 100 μM” value at PTP-1C is 62%.

Take `CCCCCCCCCC(OC(=O)c1ccc(/C=C/C(=O)O)cc1)C(=O)NCCCCCC(=O)O` (racemic) [Compound 41]: on PTP-1B, the “% inhibition of PTP1B at 1 μM” value is 39%. On PTPα, the “% inhibition of PTPα at 100 μM” value was found to be 20%. In addition, at PTP-1C, the “% inhibition of PTP1C at 100 μM” value is recorded as 17%.

With `COc1ccc(C(=O)OC(C(=O)NCCC(=O)O)c2ccc(/C=C/C(=O)O)cc2)cc1` (racemic) [Compound 42], the “% inhibition of PTP1B at 1 μM” value at PTP-1B was found to be 84%. Moreover, the “% inhibition of PTPα at 100 μM” value at PTPα amounted to 92%. The “% inhibition of PTP1C at 100 μM” value on PTP-1C is on record as 88%.

Turning to `COc1ccc(C(=O)OC(C(=O)NCCCCCC(=O)O)c2ccc(/C=C/C(=O)O)cc2)cc1` (racemic) [Compound 43], the “% inhibition of PTP1B at 1 μM” value on PTP-1B was determined as 76%. Also, at PTPα, the “% inhibition of PTPα at 100 μM” value worked out at 82%. Besides, the “% inhibition of PTP1C at 100 μM” value at PTP-1C turned out to be 79%.

In the case of `O=C(O)/C=C/c1ccc(C(OC(=O)c2ccc([N+](=O)[O-])cc2)C(=O)NCCC(=O)O)cc1` (racemic) [Compound 44], on PTP-1B, the “% inhibition of PTP1B at 1 μM” value stood at 79%. For the same molecule, the “% inhibition of PTPα at 100 μM” value at PTPα is 87%. Further, the “% inhibition of PTP1C at 100 μM” value on PTP-1C is 86%.

As for `O=C(O)/C=C/c1ccc(C(OC(=O)/C=C/c2ccc(F)cc2)C(=O)NCCC(=O)O)cc1` (racemic) [Compound 45], at PTP-1B, the “% inhibition of PTP1B at 1 μM” value turned out to be 85%. The “% inhibition of PTPα at 100 μM” value at PTPα was found to be 85%. The “% inhibition of PTP1C at 100 μM” value on PTP-1C is 84%.

`O=C(O)/C=C/c1ccc(C(OC(=O)/C=C/c2ccc(F)cc2)C(=O)NCCCCCC(=O)O)cc1` (racemic) [Compound 46]: the “% inhibition of PTP1B at 1 μM” value at PTP-1B is on record as 75%. Also, the “% inhibition of PTPα at 100 μM” value at PTPα is reported as 73%. Also, the “% inhibition of PTP1C at 100 μM” value on PTP-1C was 61%.

With `CCCC(CCC)C(=O)OC(C(=O)NCCC(=O)O)c1ccc(/C=C/C(=O)O)cc1` (racemic) [Compound 47], the “% inhibition of PTP1B at 1 μM” value on PTP-1B is on record as 68%. On PTPα, the “% inhibition of PTPα at 100 μM” value is reported as 48%. The “% inhibition of PTP1C at 100 μM” value on PTP-1C turned out to be 63%.

For `CCCC(CCC)C(=O)OC(C(=O)NCCCCCC(=O)O)c1ccc(/C=C/C(=O)O)cc1` (racemic) [Compound 48], the “% inhibition of PTP1B at 1 μM” value at PTP-1B came to 69%. The “% inhibition of PTPα at 100 μM” value at PTPα was 3%. The “% inhibition of PTP1C at 100 μM” value at PTP-1C was 33%.

Turning to `O=C(O)/C=C/c1ccc(C(OC(=O)CCC2CCCC2)C(=O)NCCC(=O)O)cc1` (racemic) [Compound 49], the “% inhibition of PTP1B at 1 μM” value on PTP-1B was 37%. Further, the “% inhibition of PTPα at 100 μM” value at PTPα was found to be 0%. The “% inhibition of PTP1C at 100 μM” value on PTP-1C stood at 35%.

For `O=C(O)/C=C/c1ccc(C(OC(=O)CCC2CCCC2)C(=O)NCCCCCC(=O)O)cc1` (racemic) [Compound 50], the “% inhibition of PTP1B at 1 μM” value on PTP-1B is on record as 50%. Also, at PTPα, the “% inhibition of PTPα at 100 μM” value is listed as 37%. The “% inhibition of PTP1C at 100 μM” value on PTP-1C is given as 25%.
